# Test results as given in patent US20090318555A1, “Treatment of Vertigo with Acetyl-L-Leucine” (PIERRE FABRE MEDICAMENT, priority 2006, published 2009).
# Columns and labels:
# [1] = tested on: postural and kinetic deficit compensation in lesioned cat; conditions: both after IV 28 mg/kg first three days post-lesion and after (IO) 28 mg/kg first 30 days postoperative, vs untreated lesioned animals; cited from earlier work
# [2] = tested on: unilateral vestibular neurectomy model in the cat; test: Support polygon surface area (postural syndrome), Example 1; assay type: in vivo; conditions: for return of support polygon surface area to normal / support polygon surface area compared to control animals: 15 mg/kg/day IV 3 days then 30 mg/kg/day oral; for support polygon surface area compared to control animals: post-lesion (D isomer: two days post-lesion and evolution)
# Protocol: The cats undergo a unilateral vestibular neurectomy on the left side. Surgery is performed using a surgical microscope, under rigorously aseptic conditions, according to a translabyrinthine approach. After incision of the tissues located behind the left auricle of the animal, an opening is made in the tympanic bulla using a diamond drill to give access to the inner ear. The labyrinth cavity is approached by an opening created above the oval window. This precisely-made opening exposes cranial […] which are sectioned at the postganglionic level. The internal auditory meatus is obturated with a cicatrizing gelatin sponge and the surface tissues are restitched. The animals are given analgesics for 48 hours and antibiotics for five days postoperative. The animals are divided into four groups comprising three treatment groups and one untreated control group, as follows: • control group (five cats), untreated after vestibular lesion but receiving a placebo, • experimental group one (four cats), treated with the racemic compound (acetyl-DL-leucine), • experimental group two (four cats), treated with the first enantiomer (acetyl-L-leucine), • experimental group three (four cats), treated with the second enantiomer (acetyl-D-leucine). Pharmacological treatments for experimental groups one, two and three begin on the day of the lesion and continue until complete recovery (45 days for untreated control animals). In these three lesioned groups, treatment is administered by intravenous (IV) route during the first three days post-lesion and is followed by oral route (OR) treatment until recovery is complete. The doses administered are 30 mg/kg/day IV then 60 mg/kg/day OR for the racemate, and 15 mg/kg/day IV then 30 mg/kg/day OR for each of the two enantiomers. For the oral route, the substance is mixed with food; for the IV route, injection takes place after local anesthesia. Support polygon surface area is a good indicator of the degree of postural stability in the cat. In general, it is quite small in the normal animal (roughly 50 cm^2). It increases considerably, by four to eight times, after a unilateral vestibular lesion. This increase in polygon surface area reflects tonic asymmetries in the extensor and flexor muscles of the fore and hind feet and the loss of certain static equilibrium reflexes (Magnus reflexes, for example). Thus, postoperative evolution of this indicator is a good measure of the animal's static equilibrium capacity. In addition, this indicator has prognostic value with respect to dynamic equilibrium performance, as measured by the rotating beam test. Support polygon surface area measurements are taken with the animal in an upright position on all four legs, at rest, using an automated three-dimensional movement analysis system with virtual markers (Codamotion optoelectronic system coupled with a SIMI alignment device). Surface area measurements (in cm^2) taken during the post-lesion period are standardized with respect to pre-lesion values. Thus, each animal acts as its own control (unit equivalent). This method enables direct between-group comparisons and within-group averaging.
# [3] = tested on: unilateral vestibular neurectomy model in the cat; test: Post-lesion horizontal spontaneous vestibular nystagmus, Example 1; assay type: in vivo; conditions: for nystagmus disappearing / nystagmus frequency compared to control animals: 15 mg/kg/day IV 3 days then 30 mg/kg/day oral
# Protocol: The cats undergo a unilateral vestibular neurectomy on the left side. Surgery is performed using a surgical microscope, under rigorously aseptic conditions, according to a translabyrinthine approach. After incision of the tissues located behind the left auricle of the animal, an opening is made in the tympanic bulla using a diamond drill to give access to the inner ear. The labyrinth cavity is approached by an opening created above the oval window. This precisely-made opening exposes cranial […] which are sectioned at the postganglionic level. The internal auditory meatus is obturated with a cicatrizing gelatin sponge and the surface tissues are restitched. The animals are given analgesics for 48 hours and antibiotics for five days postoperative. The animals are divided into four groups comprising three treatment groups and one untreated control group, as follows: • control group (five cats), untreated after vestibular lesion but receiving a placebo, • experimental group one (four cats), treated with the racemic compound (acetyl-DL-leucine), • experimental group two (four cats), treated with the first enantiomer (acetyl-L-leucine), • experimental group three (four cats), treated with the second enantiomer (acetyl-D-leucine). Pharmacological treatments for experimental groups one, two and three begin on the day of the lesion and continue until complete recovery (45 days for untreated control animals). In these three lesioned groups, treatment is administered by intravenous (IV) route during the first three days post-lesion and is followed by oral route (OR) treatment until recovery is complete. The doses administered are 30 mg/kg/day IV then 60 mg/kg/day OR for the racemate, and 15 mg/kg/day IV then 30 mg/kg/day OR for each of the two enantiomers. For the oral route, the substance is mixed with food; for the IV route, injection takes place after local anesthesia. Recovery of oculomotor functioning is quantified by measuring post-operative regression of spontaneous vestibular nystagmus to light. This nystagmus is recorded in the horizontal plane by a video camera system that records eye movements (SIMI system). Nystagmus frequency is determined by the number of beats per unit time (10 seconds). Recordings are made daily until spontaneous nystagmus disappears.
# [4] = tested on: unilateral vestibular neurectomy model in the cat; test: Kinetic equilibrium functioning, rotating beam test, Example 1; assay type: in vivo; conditions: for compensation for kinetic equilibrium compared to control animals / return to maximum performance (MP): rotating beam, 15 mg/kg/day IV 3 days then 30 mg/kg/day oral
# Protocol: The cats undergo a unilateral vestibular neurectomy on the left side.
# Surgery is performed using a surgical microscope, under rigorously aseptic conditions, according to a translabyrinthine approach. After incision of the tissues located behind the left auricle of the animal, an opening is made in the tympanic bulla using a diamond drill to give access to the inner ear. The labyrinth cavity is approached by an opening created above the oval window. This precisely-made opening exposes cranial […] which are sectioned at the postganglionic level. The internal auditory meatus is obturated with a cicatrizing gelatin sponge and the surface tissues are restitched. The animals are given analgesics for 48 hours and antibiotics for five days postoperative.
# The animals are divided into four groups comprising three treatment groups and one untreated control group, as follows: • control group (five cats), untreated after vestibular lesion but receiving a placebo, • experimental group one (four cats), treated with the racemic compound (acetyl-DL-leucine), • experimental group two (four cats), treated with the first enantiomer (acetyl-L-leucine), • experimental group three (four cats), treated with the second enantiomer (acetyl-D-leucine).
# Pharmacological treatments for experimental groups one, two and three begin on the day of the lesion and continue until complete recovery (45 days for untreated control animals). In these three lesioned groups, treatment is administered by intravenous (IV) route during the first three days post-lesion and is followed by oral route (OR) treatment until recovery is complete. The doses administered are 30 mg/kg/day IV then 60 mg/kg/day OR for the racemate, and 15 mg/kg/day IV then 30 mg/kg/day OR for each of the two enantiomers. For the oral route, the substance is mixed with food; for the IV route, injection takes place after local anesthesia.
# The rotating beam test, as described by Xerri and Lacour (Xerri C, Lacour M: Compensation for postural and kinetic deficits following unilateral vestibular neurectomy in the cat. Role of sensory-motor activity [Compensation des déficits posturaux et cinétiqtues après neurectomie vestibulaire unilatérale chez le chat. Rôle de l'activité sensori-motrice], Acta Otolaryngol (Stockh) (1980) [in French], 90, 414-424) makes it possible to quantify kinetic equilibrium functioning deficits and recovery as a function of postoperative time.
# Two compartments are connected by a cylindrical beam 3 m in length and 12 cm in diameter, placed 1.2 m above the floor. The beam can turn around its central axis with linear tangential velocities varying from 0 m/min to 37 m/min. Before the unilateral vestibular lesion (preoperative period), the cats are conditioned to move along this beam. Their maximum performance (MP), which corresponds to the highest beam rotation velocity not causing the animal to fall, is determined for four consecutive tests. In general, eight to 12 daily training sessions of approximately one hour are adequate for the animal to reach its MP. Inter-animal MP variations are relatively small (extreme values recorded: 27 m/min to 37 m/min; mean: 33 m/min; standard deviation: 2.08 m/min). For each cat, MP values obtained following unilateral vestibular neurectomy are expressed as a percentage of MP recorded at the end of training during the preoperative period.
# [5] = tested on: unilateral vestibular neurectomy model; test: Overall functional restoration in animals having undergone unilateral vestibular neurectomy; assay type: in vivo, cat; conditions: present experimental model
# Source text: The selected experimental model and protocol are recognized in the field of neurosensory research as targeting the study of disorders associated with vertigo crises. The cats undergo a unilateral vestibular neurectomy on the left side. The animals are divided into four groups comprising three treatment groups and one untreated control group, as follows: • control group (five cats), untreated after vestibular lesion but receiving a placebo, • experimental group one (four cats), treated with the racemic compound (acetyl-DL-leucine), • experimental group two (four cats), treated with the first enantiomer (acetyl-L-leucine), • experimental group three (four cats), treated with the second enantiomer (acetyl-D-leucine). Pharmacological treatments for experimental groups one, two and three begin on the day of the lesion and continue until complete recovery (45 days for untreated control animals). In these three lesioned groups, treatment is administered by intravenous (IV) route during the first three days post-lesion and is followed by oral route (OR) treatment until recovery is complete. The doses administered are 30 mg/kg/day IV then 60 mg/kg/day OR for the racemate, and 15 mg/kg/day IV then 30 mg/kg/day OR for each of the two enantiomers. For the oral route, the substance is mixed with food; for the IV route, injection takes place after local anesthesia.
# [6] = tested on: unilateral vestibular neurectomy in the cat; test: Compensation of vestibular deficits (support polygon), Example 2; assay type: in vivo; conditions: IV during first three days post-lesion
# Protocol: The experiment involves 18 cats from the breeder IFA-CREDO (France). The cats undergo a unilateral vestibular neurectomy of the left side, as in example 1. The animals are divided into three groups comprising one group treated with racemic coumpound (acetyl-DL-leucine) (groups 1) and two treated with acetyl-L-leucine (groups 2 and 3), as follows: • experimental group one (six cats), treated after vestibular lesion with the racemic compound (acetyl-DL-leucine) at 30 mg/kg per day, • experimental group two (six cats), treated after vestibular lesion with the L enantiomer (acetyl-L-leucine) at 15 mg/kg per day, • experimental group three (six cats), treated after vestibular lesion with the L enantiomer (acetyl-L-leucine) at 7.5 mg/kg per day, Pharmacological treatments for experimental groups 1 to 3 begin on the day of the lesion. Treatment is administered by intravenous (IV) route during the first three days post-lesion.
# [7] = cat, 15 mg/kg/day IV then 30 mg/kg/day oral
# [8] = acetyl-L-leucine used in a 1/2 dose of the racemate
Compound,shortening of the vestibular compensation time constant [1] [%],return of support polygon surface area to normal ([2]; cat) [days post-lesion],support polygon surface area compared to control animals ([2]; cat),"beneficial effect on support polygon parameter [2, 7]",nystagmus disappearing ([3]; cat),nystagmus frequency compared to control animals ([3]; cat),"beneficial effect on nystagmus parameter [3, 7]","beneficial effect on kinetic equilibrium parameter [4, 7]",compensation for kinetic equilibrium compared to control animals ([4]; cat),return to maximum performance (MP) ([4]; cat) [days post-lesion],improvement / restorative activity compared to placebo [5],"activity on compensation for postural deficits relative to acetyl-DL-leucine [2, 8]","activity on compensation for ocular nystagmus relative to acetyl-DL-leucine [3, 8]","activity on compensation for kinetic equilibrium relative to acetyl-DL-leucine [4, 8]","restoration of postural, locomotor and oculomotor functions deteriorated by a vestibular lesion [6]"
CC(=O)NC(CC(C)C)C(=O)O (racemic) [acetyl-DL-leucine],50,–,–,–,–,–,–,–,–,–,–,–,–,–,–
CC(=O)N[C@H](CC(C)C)C(=O)O [acetyl-D-leucine],–,40,identical to that observed in the control animals,does not have any beneficial effect,eight,identical to that of nystagmus observed in the control animals,does not have any beneficial effect,does not have any beneficial effect,identical to that observed in the control animals,42,does not provide any improvement compared to a placebo,–,–,–,–
CC(=O)N[C@@H](CC(C)C)C(=O)O [acetyl-L-leucine],–,16,significantly smaller,–,four,lower,–,–,much more rapid than in the control animals,18,restorative activity is only provided by the acetyl-L-leucine isomer,greater than or equal to that of acetyl-DL-leucine,greater than or equal to that of acetyl-DL-leucine,greater than or equal to that of acetyl-DL-leucine,efficiently restore
